Nine compounds from patent US5155110A, “Fenamic acid hydroxamate derivatives having cyclooxygenase and 5-lipoxygenase inhibition” (Warner-Lambert Company, priority 1988, dated 1992) can be followed below.

For one data set, the target named is T1, cyclooxygenase (Rattus norvegicus, UniProt Q63921).
T1 construct: host or cells: RBL-1 (rat basophilic leukemia)
T1 sequence (Q63921 27-602): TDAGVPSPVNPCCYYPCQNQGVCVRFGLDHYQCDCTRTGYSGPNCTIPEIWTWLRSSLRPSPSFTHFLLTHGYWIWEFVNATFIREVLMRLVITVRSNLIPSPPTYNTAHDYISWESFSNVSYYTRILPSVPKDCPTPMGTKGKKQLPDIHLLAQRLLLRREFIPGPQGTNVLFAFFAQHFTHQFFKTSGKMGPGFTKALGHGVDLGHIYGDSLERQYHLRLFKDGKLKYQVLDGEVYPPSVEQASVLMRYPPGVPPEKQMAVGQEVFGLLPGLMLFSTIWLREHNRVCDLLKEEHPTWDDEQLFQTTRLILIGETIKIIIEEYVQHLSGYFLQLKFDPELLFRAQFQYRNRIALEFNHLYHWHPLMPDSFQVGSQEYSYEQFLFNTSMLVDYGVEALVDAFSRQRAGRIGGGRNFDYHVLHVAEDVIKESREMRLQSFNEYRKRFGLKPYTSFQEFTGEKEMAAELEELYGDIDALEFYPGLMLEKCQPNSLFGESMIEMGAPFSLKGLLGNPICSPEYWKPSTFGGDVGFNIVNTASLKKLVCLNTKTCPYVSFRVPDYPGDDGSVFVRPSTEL
As to the kind of experiment: ARBC whole cell cyclooxygenase assay (PGF2α formation in RBL-1 cells). It is filed as cell-based. As to conditions: RBL-1 whole cells; for IC50: A23187 5 μM, read-out: ARBC IC50 for PGF2α inhibition. The procedure:
(§1) ARBL/ARBC Whole Cell 5-Lipoxygenase and Cyclooxygenase Assays
(§2) The rat basophilic leukemia cell line (RBL-1) was obtained from the American Type Culture Collection (Rockville, Md.).
(§3) Radioimmuno assay (RIA) kits of LTB4 and PGF2.sbsb.α were obtained from Amersham (Arlington Heiqhts, Ill.) and Seragen (Boston, Mass.) respectively.
(§4) All tissue culture media were obtained from GIBCO (Grand Island, N.Y.).
RBL-1 cells are grown in suspension culture in Eagle's minimum essential medium supplemented with 12% fetal bovine serum at 37° C. in an incubator supplied with air-5% carbon dioxide. Cells are harvested by centrifugation. They are washed with cold phosphate buffered saline pH 7.4 (PBS; NaCl, […]; Na2 HPO4, 1.15 g; KH2 PO4, 0.2 g; and KCl, 0.2 g/l). […] Calcium ionophore A23187 (5 μM) is added and cells are incubated for seven minutes at 37° C. The reaction is stopped by chilling the tubes on ice for ten minutes. Cells are separated by centrifugation and the supernatant is stored at -20°. Aliquots (100 μl) are analyzed for LTB4 and PGF2.sbsb.α using radioimmuno assay kits as provided by the supplier.

The target in a further data set is T2, 5-lipoxygenase (Rattus norvegicus, UniProt P12527).
T2 construct: host or cells: RBL-1 (rat basophilic leukemia)
T2 sequence (P12527 1-673): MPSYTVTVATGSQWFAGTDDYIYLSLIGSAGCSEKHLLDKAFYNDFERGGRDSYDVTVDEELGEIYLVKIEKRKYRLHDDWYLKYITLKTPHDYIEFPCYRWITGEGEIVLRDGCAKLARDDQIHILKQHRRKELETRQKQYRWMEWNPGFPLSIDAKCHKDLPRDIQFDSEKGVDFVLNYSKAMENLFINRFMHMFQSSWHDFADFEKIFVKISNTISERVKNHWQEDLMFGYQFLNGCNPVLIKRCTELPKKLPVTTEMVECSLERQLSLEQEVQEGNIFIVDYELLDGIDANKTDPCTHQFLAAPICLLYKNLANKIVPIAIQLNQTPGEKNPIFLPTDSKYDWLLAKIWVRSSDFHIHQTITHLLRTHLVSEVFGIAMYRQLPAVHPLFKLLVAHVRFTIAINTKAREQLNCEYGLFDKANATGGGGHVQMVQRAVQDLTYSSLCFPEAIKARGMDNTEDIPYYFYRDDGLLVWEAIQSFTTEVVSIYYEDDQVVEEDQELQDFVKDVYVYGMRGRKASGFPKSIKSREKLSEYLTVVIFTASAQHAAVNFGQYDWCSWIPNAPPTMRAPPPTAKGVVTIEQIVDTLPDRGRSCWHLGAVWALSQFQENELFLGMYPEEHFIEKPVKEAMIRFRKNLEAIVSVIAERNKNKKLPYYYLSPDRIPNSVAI
The data set is described as follows: ARBL whole cell 5-lipoxygenase assay (LTB4 formation in RBL-1 cells). As to conditions: RBL-1 whole cells; for IC50: A23187 5 μM, read-out: ARBL IC50 for LTB4 inhibition. It is filed as cell-based. As to the method: as §1, §2, §3, §4
RBL-1 cells are grown in suspension culture in Eagle's minimum essential medium supplemented with 12% fetal bovine serum at 37° C. in an incubator supplied with air-5% carbon dioxide. Cells are harvested by centrifugation. They are washed with cold phosphate buffered saline pH 7.4 (PBS; NaCl, […]; Na2 HPO4, 1.15 g; KH2 PO4, 0.2 g; and KCl, 0.2 g/l). Cells are finally suspended in PBS containing 1.0 mM calcium at a density of 2×10^6 cells/ml. Cells are incubated with and without test agent (in DMSO) (1% DMSO is without effect on arachidonic acid metabolism) for ten minutes at room temperature. Calcium ionophore A23187 (5 μM) is added and cells are incubated for seven minutes at 37° C. The reaction is stopped by chilling the tubes on ice for ten minutes. Cells are separated by centrifugation and the supernatant is stored at -20°. Aliquots (100 μl) are analyzed for LTB4 and PGF2.sbsb.α using radioimmuno assay kits as provided by the supplier.

The next data set relates to gastric ulcers in rats. The data set is described as follows: Gastric Ulcerogenicity (UD). Format: in vivo, rat. To be noted: @ 200 mg/kg PO, fasted male Wistar rats, six hours. The procedure:
(§5) Gastric Ulcerogenicity (UD)
(§6) Male outbred Wistar rats (100-250 gms) were fasted for 24 hours. After fasting, test compounds were administered orally (in 2 ml/kg of 0.5% hydroxypropyl methylcellulose) and the rats were denied access to food and water for six more hours. The rats were then sacrificed with CO2 so that the stomachs could be removed, opened along the greater curvature, and evaluated for the presence of gastric ulcers. Results are expressed as the percent of rats with gastric ulcers at a given dose.

Data set [1] relates to Mycobacterium-induced rat footpad edema. As to the kind of experiment: Mycobacterium-Induced Rat Footpad Edema Assay (MFE). It is filed as in vivo. As to conditions: PO, one hour before Mycobacterium and Days 1 and 2, swelling at 72 hours, read-out: MFE ID40. As to the method:
Mycobacterium--Induced Rat Footpad Edema Assay (MFE): Protocol
Myobacterium butyricum (5 mg/ml) is suspended in paraffin oil by sonication for ten minutes in an ice bath. Footpad edema is induced on Day 0 by injecting 0.1 ml of the Mycobacterium mixture into the left hindpaw of lightly anesthetized rats. Swelling in the injected hindpaw is determined by mercury plethysmography 72 hours after injection. Groups of rats are treated with test compounds (suspended in 0.5% hydroxypropyl methylcellulose with 0.2% Tween-80) or vehicle one hour before Myobacterium injection and on Days 1 and 2. Inhibition of swelling is determined by comparing the change in hindpaw volume in compound- and vehicle-treated rats. […] (the dose at which swelling is inhibited by 40%) was calculated by probit analysis.

Data set [2] relates to carrageenan-induced rat foot paw edema. The data set is described as follows: Carrageenan-Induced Rat Foot Paw Edema (CFE-2). It is filed as in vivo. To be noted: 5 h, read-out: CFE-2 ID25. As to the method:
Carrageenan-Induced Rat Foot Paw Edema2 (CFE2)
Carrageenan solution (1% w/v) is prepared by dissolving 100 mg carrageenan (Marine Colloidal Div., Springfield, N.J.) in 10 ml of sterile saline (0.9%) solution (Travenol). The solution is vortexed for 30 to 45 minutes. Animals are dosed with compound one hour before carrageenan challenge. Foot paw edema is induced by injecting 0.05 ml of the 1% carrageenan subcutaneously into the plantar portion of the right hind paw of each rat under light anesthesia. Initial foot paw volume is measured immediately following carrageenan challenge using mercury plethysmography (Buxco Electronics). Edema is measured five hours after carrageenan. The difference between the five-hour and the initial paw volume is expressed as delta edema. The delta edema for each test group of animals is used to calculate the percent inhibition of edema achieved by the compound at the test dose compared with the vehicle control group. The ID25 (the dose at which swelling is inhibited by 25%) was calculated by probit analysis for the dose at which a result of 25 percent inhibition occurs.
(The carrageenan paw model is a standard test of acute inflammation.)

Data set [3] in a line: Gastric Ulcerogenicity (UD). To be noted: rat, in vivo; fasted male Wistar rats, PO, six hours; read-out: UD50 (dose which produces a 50% occurrence of ulcers in rats). Format: in vivo, rat. As to the method:
as §5, §6

The mark [4] stands for this setting: rat, PO, dosed one hour before carrageenan, edema at five hours.

Where two headings read alike, the source gives them in different places.

By inhibition is commonly meant the relative decrease from the control value, in per cent. Read a high inhibition as strong suppression. Usually IC50 stands for the concentration that gives 50% inhibition.

For the compound `Cc1cccc(Nc2ccccc2C(=O)NO)c1C` [Example 9, 2-[(2,3-dimethylphenyl)amino]-N-hydroxybenzamide], at cyclooxygenase (@ 0.5 μM), at 0.5 µM the inhibition was 60%. Besides, the half-inhibitory concentration (IC50) on 5-lipoxygenase stood at 1.8 µM.
Turning to `CONC(=O)c1ccccc1Nc1c(Cl)ccc(C)c1Cl` [Example 4, Ortho-2,6-dichloro-3-methylanilinobenzhydroxamic acid O-methyl ether], the IC50 on 5-lipoxygenase came to 16 µM.
For the compound `Cc1ccc(Cl)c(Nc2ccccc2C(=O)N(C)O)c1Cl` [Example 3, 2-[(2,6-dichloro-3-methylphenyl)amino]-N-hydroxy-N-methylbenzamide], the concentration for half-maximal inhibition (IC50) on 5-lipoxygenase amounted to 1.5 µM. In addition, the “UD: percent of rats with gastric ulcers” value in the data set with gastric ulcers in rats was “N (N is 0% of rats have ulcers occurring at 200 mg.)”. For the same compound, the ED40 in data set [1] was 24 mg/kg. In data set [2] (setting [4]), the ED25 was 1.3 mg/kg.
On to `Cc1ccc(Cl)c(N2C(=O)C(=NO)c3ccccc32)c1Cl` [Example 49, 1-(2,6-Dichloro-3-methylphenyl)-lH-indole-2,3-dione-3-oxime], for which the values for the half-inhibitory concentration (IC50) at cyclooxygenase and on 5-lipoxygenase were 28 µM and 6.5 µM, respectively.
Turning to `O=C(NO)c1ccccc1Nc1c(Cl)cccc1Cl` [Example 10, 2-[(2,6-dichlorophenyl)amino]-N-hydroxybenzamide], the inhibition at 16 µM came out at 80% at cyclooxygenase (@ 16 μM) and 88% at 5-lipoxygenase (@ 16 μM).
In the case of `Cc1ccc(Cl)c(Nc2ccccc2C(=O)O)c1Cl` [Meclomen, reference compound], at 5-lipoxygenase, the IC50 came out at 24 µM. For the same compound, the TD50 at 6 h in data set [3] turned out to be 36 mg/kg. Also, the ED40 in data set [1] was determined as 0.39 mg/kg. Moreover, the ED25 in data set [2] (Rattus norvegicus, po) was determined as 8.2 mg/kg.
With `Cc1ccc(Cl)c(N2CN(O)C(=O)c3ccccc32)c1Cl` [Example 35, 1-(2,6-dichloro-3-methylphenyl)-2,3-dihydro-3-hydroxy-4(1H)-quinazolinone], the IC50 was found to be 2.2 µM at cyclooxygenase and 3.2 µM at 5-lipoxygenase.
On to `Cc1ccc(Cl)c(Nc2ccccc2C(=O)N(O)Cc2ccccc2)c1Cl` [Example 1, 2-[(2,6-Dichloro-3-methylphenyl)amino]-N-hydroxy-N-phenylmethylbenzamide], for which the “UD: percent of rats with gastric ulcers” value in the data set with gastric ulcers in rats is recorded as “N (N is 0% of rats have ulcers occurring at 200 mg.)”. For the same compound, in data set [1], the ED40 was 27 mg/kg.
Regarding `Cc1ccc(Cl)c(Nc2ccccc2C(=O)NO)c1Cl` [Example 2, 2-[(2,6-dichloro-3-methylphenyl)amino]-N-hydroxybenzamide], on 5-lipoxygenase, the half-inhibitory concentration (IC50) was 3.9 µM. The “UD: percent of rats with gastric ulcers” value in the data set with gastric ulcers in rats is reported as “N (N is 0% of rats have ulcers occurring at 200 mg.)”. Also, in data set [1], the ED40 stood at 2.5 mg/kg. For the same compound, the ED25 in data set [2] (setting [4]) is 0.2 mg/kg.
